Assay results reported in ChEMBL document CHEMBL4376868, “Structure-Activity Relationship Study of Novel 6-Aryl-2-benzoyl-pyridines as Tubulin Polymerization Inhibitors with Potent Antiproliferative Properties” (J Med Chem, 2020).
Calls of active or inactive are those of the source. No cut-off for these calls is given here.

Tests used:
SK-BR-3 = test: Antiproliferative activity against human SK-BR-3 cells measured after 72 hrs by MTS assay; assay type: functional, cell-based; details: SK-BR-3, 72 h
A-375 = test: Antiproliferative activity against human A375 cells measured after 72 hrs by MTS assay; assay type: functional, cell-based; details: A-375, 72 h
RPMI-7951 = test: Antiproliferative activity against human RPMI7951 cells measured after 72 hrs by MTS assay; assay type: functional, cell-based; details: RPMI-7951, 72 h
MDA-MB-231 = test: Antiproliferative activity against human MDA-MB-231 cells measured after 72 hrs by MTS assay; assay type: functional, cell-based; details: MDA-MB-231, 72 h
M14 = test: Antiproliferative activity against human M14 cells measured after 72 hrs by MTS assay; assay type: functional, cell-based; details: M14, 72 h
MDA-MB-453 = test: Antiproliferative activity against human MDA-MB-453 cells measured after 72 hrs by MTS assay; assay type: functional, cell-based; details: MDA-MB-453, 72 h
Tubulin (Sus scrofa) = Tubulin (Sus scrofa) (UniProt P02554+P02550); test: Inhibition of porcine brain tubulin polymerization at 10 uM measured at 30 secs interval for 65 mins by spectrophotometric method
Chain of Tubulin (Sus scrofa) (P02550 whole entry, looked up): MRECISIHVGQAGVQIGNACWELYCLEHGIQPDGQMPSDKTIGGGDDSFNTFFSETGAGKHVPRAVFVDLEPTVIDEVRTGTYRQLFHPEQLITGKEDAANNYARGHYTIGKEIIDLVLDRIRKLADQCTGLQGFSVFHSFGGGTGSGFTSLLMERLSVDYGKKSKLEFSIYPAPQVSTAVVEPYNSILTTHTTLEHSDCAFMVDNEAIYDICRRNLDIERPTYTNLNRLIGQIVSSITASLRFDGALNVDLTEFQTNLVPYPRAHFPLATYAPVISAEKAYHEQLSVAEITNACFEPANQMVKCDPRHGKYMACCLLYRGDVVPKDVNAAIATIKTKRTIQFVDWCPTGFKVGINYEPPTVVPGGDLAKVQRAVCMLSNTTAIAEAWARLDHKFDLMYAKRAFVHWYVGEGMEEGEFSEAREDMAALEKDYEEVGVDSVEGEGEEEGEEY
Chain of Tubulin (Sus scrofa) (P02554 whole entry, looked up): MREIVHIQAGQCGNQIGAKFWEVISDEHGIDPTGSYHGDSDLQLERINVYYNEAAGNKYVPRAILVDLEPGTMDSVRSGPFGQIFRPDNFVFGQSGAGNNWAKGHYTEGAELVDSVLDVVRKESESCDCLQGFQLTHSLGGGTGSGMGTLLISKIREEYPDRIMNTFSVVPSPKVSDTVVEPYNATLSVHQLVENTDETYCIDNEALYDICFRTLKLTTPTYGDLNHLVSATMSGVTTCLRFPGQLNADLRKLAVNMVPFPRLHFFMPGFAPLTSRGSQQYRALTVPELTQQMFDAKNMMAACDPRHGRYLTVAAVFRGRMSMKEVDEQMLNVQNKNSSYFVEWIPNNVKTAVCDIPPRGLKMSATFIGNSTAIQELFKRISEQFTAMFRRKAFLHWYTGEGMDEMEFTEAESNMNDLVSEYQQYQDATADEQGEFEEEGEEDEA

| Compound | IC50 (SK-BR-3) [nM] | IC50 (A-375) [nM] | IC50 (RPMI-7951) [nM] | IC50 (MDA-MB-231) [nM] | IC50 (M14) [nM] | IC50 (MDA-MB-453) [nM] | inhibition (Tubulin (Sus scrofa)) |
| --- | --- | --- | --- | --- | --- | --- | --- |
| COc1cc(C(=O)c2cccc(-c3cccc([N+](=O)[O-])c3)n2)cc(OC)c1OC | 736 | 311 | 54.7 | 328 | 87.9 | 881 |  |
| COc1cc(C(=O)/C=C/c2cccc(-c3ccc(C)c(O)c3)n2)cc(OC)c1OC | > 1000 | > 1000 | > 1000 | > 1000 | > 1000 | > 1000 |  |
| COc1cc(C(=O)c2cccc(-c3ccc(C)c(F)c3)n2)cc(OC)c1OC | 4.4 | 5.9 | 5.6 | 6.5 | 6.7 | 6.5 |  |
| CCc1ccc(-c2cccc(C(=O)c3cc(OC)c(OC)c(OC)c3)n2)cc1 | 22.4 | 19.5 | 18.3 | 21 | 17.5 | 16.5 |  |
| COc1cc(C(=O)c2cnc(-c3c[nH]c4ccccc34)[nH]2)cc(OC)c1OC [SABIZABULIN] | 13.3 | 10.4 | 8.8 | 8.2 | 8.9 | 13.6 |  |
| C=C(c1cc(OC)c(OC)c(OC)c1)c1cccc(-c2ccc(C)cc2)n1 | 186 | 207 | 154 | 159 | 167 | 155 |  |
| COc1cc(C(=O)c2cccc(-c3ccc(F)cc3)n2)cc(OC)c1OC | 36.6 | 25 | 23.2 | 20.7 | 15.4 | 21.4 |  |
| COc1cc(C(=O)c2cncc(-c3ccc(C)c(O)c3)c2)cc(OC)c1OC | 62.7 | 60.6 | 63.6 | 66.3 | 57.1 | 64.8 |  |
| COc1cc(C(=O)c2cccc(-c3ccc4[nH]c5ccccc5c4c3)n2)cc(OC)c1OC | 321 | 277 | 202 | 424 | 293 | 301 |  |
| COc1cc(C(=O)c2cccc(-c3ccc(O)cc3)n2)cc(OC)c1OC | 386 | 42.4 | 22.2 | 27.7 | 28.9 | 28.5 |  |
| COc1cc(C(=O)c2cccc(-c3ccsc3)n2)cc(OC)c1OC | 67.3 | 34.1 | 27.9 | 35.5 | 28.3 | 38.5 |  |
| COc1cc(C(=O)c2cccc(-c3cccc4[nH]ccc34)n2)cc(OC)c1OC | 19 | 9.3 | 6.5 | 17.9 | 12.2 | 16 |  |
| COc1cc(C(=O)c2cccc(-c3ccccc3C)n2)cc(OC)c1OC | 68 | 52.5 | 54.2 | 91.9 | 27.4 | 58.3 |  |
| COc1cc(C(=O)c2cccc(-c3cc[nH]c3)n2)cc(OC)c1OC | 51.2 | 46.6 | 45.2 | 41 | 45.1 | 33.9 |  |
| COc1cc(C(=O)c2cccc(-c3ccc(C)c(Cl)c3)n2)cc(OC)c1OC | 13.4 | 24.2 | 22.6 | 20 | 16.6 | 13.5 |  |
| COc1cc(C(=O)c2ccccn2)cc(OC)c1OC | > 1000 | > 1000 | > 1000 | > 1000 | > 1000 | > 1000 |  |
| COc1cc(C(=O)c2cccc(-c3ccc(C(N)=O)cc3)n2)cc(OC)c1OC | 66.5 | 87.4 | 36.3 | 39.2 | 47.9 | 76.3 |  |
| COc1cc(C(=O)c2cccc(-c3cccnc3)n2)cc(OC)c1OC | 109 | 60.1 | 51.9 | 66.5 | 55.3 | 102 |  |
| COc1cc(C(=O)c2cc(C)cc(-c3ccc(C)c(O)c3)n2)cc(OC)c1OC | 15 | 18.1 | 17.1 | 17.2 | 22.3 | 17.8 |  |
| COc1cc(C(=O)c2cccc(-c3ccc(C(F)(F)F)cc3)n2)cc(OC)c1OC | 7 | 19.8 | 19.6 | 23.6 | 21.4 | 7.9 |  |
| COc1cc(C(=O)c2cccc(-c3c(C)cc(C)cc3C)n2)cc(OC)c1OC | > 1000 | > 1000 | > 1000 | > 1000 | > 1000 | > 1000 |  |
| COc1cc(C(=O)c2cccc(-c3cc(OC)c(OC)c(OC)c3)n2)cc(OC)c1OC | > 1000 | > 1000 | > 1000 | > 1000 | > 1000 | > 1000 |  |

| Compound | IC50 (SK-BR-3) [nM] | IC50 (A-375) [nM] | IC50 (RPMI-7951) [nM] | IC50 (MDA-MB-231) [nM] | IC50 (M14) [nM] | IC50 (MDA-MB-453) [nM] | inhibition (Tubulin (Sus scrofa)) |
| --- | --- | --- | --- | --- | --- | --- | --- |
| COc1cc(C(=O)c2cccc(-c3ccnc4ccccc34)n2)cc(OC)c1OC | > 1000 | > 1000 | > 1000 | > 1000 | > 1000 | > 1000 |  |
| COc1cc(C(=O)c2cc(F)cc(-c3ccc(C)c(O)c3)c2)cc(OC)c1OC | 86.4 | 67 | 25.2 | 220 | 30 | 47.2 |  |
| COc1cc(C(=O)c2cccc(-c3cccc(C)c3)n2)cc(OC)c1OC | 61 | 62.9 | 60.7 | 82.4 | 46.1 | 63.6 |  |
| COc1cc(C(=O)c2cccc(-c3ccc(C#N)cc3)n2)cc(OC)c1OC | 12.3 | 12.3 | 11.9 | 28.1 | 12.8 | 10.6 |  |
| COc1cc(C(=O)c2cccc(-c3cccc(N)c3)n2)cc(OC)c1OC | 38.9 | 41.8 | 20.1 | 34.7 | 25.9 | 25.2 |  |
| COc1cc(C(=O)c2cccc(-c3ccc([N+](=O)[O-])cc3)n2)cc(OC)c1OC | 5 | 11.4 | 12.9 | 9 | 10.9 | 6.9 |  |
| COc1cc(C(=O)c2cccc(-c3ccc4[nH]ccc4c3)n2)cc(OC)c1OC | 14.9 | 7 | 7.4 | 17.7 | 6.7 | 14.9 |  |
| COc1cc(C(=O)c2c[nH]c(-c3ccc(C)cc3)n2)cc(OC)c1OC | 12.5 | 18.7 | 6.4 | 25.3 | 6.9 | 11.4 | Active |
| COc1cc(C(=O)c2cccc(-c3c[nH]c4ccccc34)n2)cc(OC)c1OC | 19.7 | 19.2 | 19.5 | 23.8 | 17.8 | 8.5 |  |
| COc1cc(C(=O)c2cccc(-c3cccc(O)c3)n2)cc(OC)c1OC | 101 | 35.8 | 29.9 | 41.4 | 31.4 | 29.1 |  |
| COc1cc(C(=O)c2cccc(-c3ccncc3)n2)cc(OC)c1OC | > 1000 | > 1000 | > 1000 | > 1000 | > 1000 | > 1000 |  |
| COc1cc(C(=O)c2cccc(-c3ccc(C)c(O)c3)c2)cc(OC)c1OC | 20 | 27.4 | 15.7 | 35.9 | 16.2 | 15.6 |  |
| COc1cc(C(=O)c2cccc(-c3ccc(C)c(N)c3)n2)cc(OC)c1OC | 1.6 | 3 | 2 | 2.8 | 3 | 2.9 |  |
| COc1ccc(-c2cccc(C(=O)c3cc(OC)c(OC)c(OC)c3)n2)cc1 | 19.9 | 27.8 | 32.1 | 50.7 | 27.4 | 18.1 |  |
| COc1cc(C(=O)c2cccc(-c3cncc4ccccc34)n2)cc(OC)c1OC | > 1000 | > 1000 | > 1000 | > 1000 | > 1000 | > 1000 |  |
| COc1cc(C(=O)c2cccc(-c3cncnc3)n2)cc(OC)c1OC | > 1000 | > 1000 | > 1000 | > 1000 | > 1000 | > 1000 |  |
| COc1cc(C(=O)c2cc(O)cc(-c3ccc(C)cc3)n2)cc(OC)c1OC | > 1000 | > 1000 | > 1000 | > 1000 | > 1000 | > 1000 |  |
| COc1cc(C(=O)c2cccc(-c3ccc(C(C)=O)cc3)n2)cc(OC)c1OC | 18.8 | 24 | 40.5 | 104 | 22.5 | 19.1 |  |
| COc1cccc(-c2cccc(C(=O)c3cc(OC)c(OC)c(OC)c3)n2)c1 | 42.4 | 41.3 | 42.3 | 41.4 | 34.7 | 24.5 |  |
| COc1cc(C(=O)c2cccc(-c3ccc(N)cc3)n2)cc(OC)c1OC | 16.2 | 13.2 | 9.4 | 27.1 | 12.1 | 13.4 |  |
| COc1cc(C(=O)c2cc(-c3ccc(C)cc3)ccn2)cc(OC)c1OC | 12 | 15.6 | 19.8 | 35.2 | 16.3 | 7.1 |  |
| COc1cc(C(=O)c2cccc(-c3ccc(C)c(C)c3)n2)cc(OC)c1OC | 8.8 | 9 | 8.4 | 20 | 8.1 | 15.8 |  |
